Key:
Experiment in all cases: DiscoveRx scanMAX kinase profiling
Assay type in all cases: binding
AKT1 = molecular target: T1, AKT1 (Homo sapiens, UniProt P31749); conditions: read-out: Direct inhibitory activity on AKT1 (KINOMEscan)
T1 construct: purchased DiscoverX (San Diego, Calif.) scanMAX
Procedure: (§1) Biochemical assays: Recombinant human EIF2AK3 (PERK) catalytic domain (amino acids 536-1116; Cat # PV5107), GFP-eIF2a (Cat # PV4809) substrate, and Terbium-labelled phospho-eIF2a antibody (Cat # PR8956B) were purchased from Invitrogen (Carlsbad, Calif.). HIS-SUMO-GCN2 catalytic domain (amino acids 584-1019) was expressed and purified from E. coli. TR-FRET kinase assays were performed in the absence or presence of inhibitors in a reaction buffer consisting of 50 mM HEPES, pH 7.5, 10 mMMgCl2, 1.0 mM EGTA, and 0.01% Brij-35, and 100-200 nM GFP-eIF2a substrate. […] Following the addition of test compound, the reaction was initiated by addition of enzyme and incubated at room temperature for 45 minutes. The reaction was stopped by addition of EDTA to a final concentration of 10 mM and Terbium-labelled phospho-eIF2α antibody was added at a final concentration of 2 nM and incubated for 90 minutes. The resulting fluorescence was monitored in an EnVison® Multilabel reader (PerkinElmer, Waltham, Mass.). TR-FRET ratios and the resulting IC50 values were determined from the fitted inhibition curves. Biochemical specificity profiling was performed at Cerep (Redmond, Wash.) and DiscoverX (San Diego, Calif.).

AKT2 = molecular target: T2, AKT2 (Homo sapiens, UniProt P31751); conditions: read-out: Direct inhibitory activity on AKT2 (KINOMEscan)
T2 construct: purchased DiscoverX (San Diego, Calif.) scanMAX
T2 sequence (P31751 whole entry): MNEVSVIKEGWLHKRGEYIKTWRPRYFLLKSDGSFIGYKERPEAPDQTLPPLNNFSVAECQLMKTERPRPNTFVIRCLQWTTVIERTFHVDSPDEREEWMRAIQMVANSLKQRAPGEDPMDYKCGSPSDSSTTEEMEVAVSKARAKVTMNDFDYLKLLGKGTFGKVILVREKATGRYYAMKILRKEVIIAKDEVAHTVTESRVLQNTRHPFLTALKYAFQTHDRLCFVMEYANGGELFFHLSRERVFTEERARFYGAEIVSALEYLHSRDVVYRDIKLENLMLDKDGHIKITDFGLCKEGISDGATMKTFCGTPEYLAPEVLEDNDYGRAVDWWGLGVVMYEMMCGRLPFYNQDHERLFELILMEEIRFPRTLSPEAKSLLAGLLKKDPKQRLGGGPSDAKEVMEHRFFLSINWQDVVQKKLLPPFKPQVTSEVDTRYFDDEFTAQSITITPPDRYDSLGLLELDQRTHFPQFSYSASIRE
Procedure: as §1

AKT3 = molecular target: T3, AKT3 (Homo sapiens, UniProt Q9Y243); conditions: read-out: Direct inhibitory activity on AKT3 (KINOMEscan)
T3 construct: purchased DiscoverX (San Diego, Calif.) scanMAX
Procedure: as §1

EGFR = molecular target: T4, EGFR (Homo sapiens, UniProt P00533); conditions: read-out: Direct inhibitory activity on EGFR (KINOMEscan)
T4 construct: purchased DiscoverX (San Diego, Calif.) scanMAX
Procedure: as §1

EIF2AK1 = molecular target: T5, EIF2AK1 (Homo sapiens, UniProt Q9BQI3); conditions: read-out: Inhibition of EIF2AK1 (KINOMEscan)
T5 construct: purchased DiscoverX (San Diego, Calif.) scanMAX
Procedure: as §1

ERBB2 = molecular target: T6, ERBB2 (Homo sapiens, UniProt P04626); conditions: read-out: Direct inhibitory activity on ERBB2 (KINOMEscan)
T6 construct: purchased DiscoverX (San Diego, Calif.) scanMAX
T6 sequence (P04626 23-1255): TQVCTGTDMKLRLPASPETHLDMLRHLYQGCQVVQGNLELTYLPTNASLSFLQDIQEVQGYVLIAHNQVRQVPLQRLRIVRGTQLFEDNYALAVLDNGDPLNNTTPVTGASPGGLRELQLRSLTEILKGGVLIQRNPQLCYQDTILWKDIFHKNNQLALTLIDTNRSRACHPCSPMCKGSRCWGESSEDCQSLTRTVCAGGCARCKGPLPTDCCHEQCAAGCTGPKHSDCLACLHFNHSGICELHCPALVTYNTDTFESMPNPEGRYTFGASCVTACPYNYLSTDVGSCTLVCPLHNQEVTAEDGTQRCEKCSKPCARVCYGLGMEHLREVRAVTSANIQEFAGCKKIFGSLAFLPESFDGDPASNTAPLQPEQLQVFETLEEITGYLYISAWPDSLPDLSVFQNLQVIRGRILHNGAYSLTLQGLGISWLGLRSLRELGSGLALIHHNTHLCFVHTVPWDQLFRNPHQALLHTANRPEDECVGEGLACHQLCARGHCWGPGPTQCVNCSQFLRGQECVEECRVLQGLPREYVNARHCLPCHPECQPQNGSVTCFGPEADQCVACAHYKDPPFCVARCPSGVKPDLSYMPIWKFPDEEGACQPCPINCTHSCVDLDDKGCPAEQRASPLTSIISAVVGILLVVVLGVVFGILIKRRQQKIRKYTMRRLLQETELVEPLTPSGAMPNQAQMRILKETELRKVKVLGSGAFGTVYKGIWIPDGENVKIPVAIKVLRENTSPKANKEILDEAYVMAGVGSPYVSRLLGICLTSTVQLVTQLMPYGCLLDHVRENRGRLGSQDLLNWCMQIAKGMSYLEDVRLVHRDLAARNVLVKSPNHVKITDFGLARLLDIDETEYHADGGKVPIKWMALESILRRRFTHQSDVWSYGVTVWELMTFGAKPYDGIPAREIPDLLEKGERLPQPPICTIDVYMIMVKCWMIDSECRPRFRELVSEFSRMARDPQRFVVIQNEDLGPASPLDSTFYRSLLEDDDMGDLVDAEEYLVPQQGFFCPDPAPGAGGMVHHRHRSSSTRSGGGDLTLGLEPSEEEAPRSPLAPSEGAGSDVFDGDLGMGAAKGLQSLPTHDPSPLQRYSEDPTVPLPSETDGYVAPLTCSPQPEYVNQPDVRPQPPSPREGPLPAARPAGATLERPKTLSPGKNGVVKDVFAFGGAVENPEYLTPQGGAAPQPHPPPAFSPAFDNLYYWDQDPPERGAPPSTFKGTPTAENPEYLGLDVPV
Procedure: as §1

ERBB4 = molecular target: T7, ERBB4 (Homo sapiens, UniProt Q15303); conditions: read-out: Direct inhibitory activity on ERBB4 (KINOMEscan)
T7 construct: purchased DiscoverX (San Diego, Calif.) scanMAX
Procedure: as §1

ERK3 (MAPK6) = molecular target: T8, ERK3 (MAPK6) (Homo sapiens, UniProt Q16659); conditions: read-out: Direct inhibitory activity on ERK3 (KINOMEscan)
T8 construct: purchased DiscoverX (San Diego, Calif.) scanMAX
Procedure: as §1

ERK4 (MAPK4) = molecular target: T9, ERK4 (MAPK4) (Homo sapiens, UniProt P31152); conditions: read-out: Direct inhibitory activity on ERK4 (KINOMEscan)
T9 construct: purchased DiscoverX (San Diego, Calif.) scanMAX
T9 sequence (P31152 whole entry): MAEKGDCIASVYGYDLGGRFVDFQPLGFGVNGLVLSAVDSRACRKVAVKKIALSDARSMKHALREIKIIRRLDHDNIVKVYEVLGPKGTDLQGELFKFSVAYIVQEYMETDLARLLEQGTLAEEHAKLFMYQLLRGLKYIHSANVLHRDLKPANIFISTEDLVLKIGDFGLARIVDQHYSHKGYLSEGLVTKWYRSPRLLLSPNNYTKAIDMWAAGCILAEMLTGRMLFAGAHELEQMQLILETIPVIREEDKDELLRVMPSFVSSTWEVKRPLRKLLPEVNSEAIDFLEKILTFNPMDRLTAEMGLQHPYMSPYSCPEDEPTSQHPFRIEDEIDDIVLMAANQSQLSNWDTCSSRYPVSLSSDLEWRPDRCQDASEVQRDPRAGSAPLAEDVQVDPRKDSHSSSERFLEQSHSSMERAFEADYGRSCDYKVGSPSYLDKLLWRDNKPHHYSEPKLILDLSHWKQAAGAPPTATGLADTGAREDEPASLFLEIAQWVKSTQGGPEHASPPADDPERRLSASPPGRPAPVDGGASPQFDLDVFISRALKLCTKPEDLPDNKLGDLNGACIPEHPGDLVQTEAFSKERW
Procedure: as §1

PIK3C2B = molecular target: T10, PIK3C2B (Homo sapiens, UniProt O00750); conditions: read-out: Direct inhibitory activity on PIK3C2B (KINOMEscan)
T10 construct: purchased DiscoverX (San Diego, Calif.)
Procedure: as §1

PIK3CA = molecular target: T11, PIK3CA (Homo sapiens, UniProt P42336); conditions: read-out: Direct inhibitory activity on PIK3CA (KINOMEscan)
T11 construct: purchased DiscoverX (San Diego, Calif.)
Procedure: as §1

PIK3CB = molecular target: T12, PIK3CB (Homo sapiens, UniProt P42338); conditions: read-out: Direct inhibitory activity on PIK3CB (KINOMEscan)
T12 construct: purchased DiscoverX (San Diego, Calif.)
T12 sequence (P42338 whole entry): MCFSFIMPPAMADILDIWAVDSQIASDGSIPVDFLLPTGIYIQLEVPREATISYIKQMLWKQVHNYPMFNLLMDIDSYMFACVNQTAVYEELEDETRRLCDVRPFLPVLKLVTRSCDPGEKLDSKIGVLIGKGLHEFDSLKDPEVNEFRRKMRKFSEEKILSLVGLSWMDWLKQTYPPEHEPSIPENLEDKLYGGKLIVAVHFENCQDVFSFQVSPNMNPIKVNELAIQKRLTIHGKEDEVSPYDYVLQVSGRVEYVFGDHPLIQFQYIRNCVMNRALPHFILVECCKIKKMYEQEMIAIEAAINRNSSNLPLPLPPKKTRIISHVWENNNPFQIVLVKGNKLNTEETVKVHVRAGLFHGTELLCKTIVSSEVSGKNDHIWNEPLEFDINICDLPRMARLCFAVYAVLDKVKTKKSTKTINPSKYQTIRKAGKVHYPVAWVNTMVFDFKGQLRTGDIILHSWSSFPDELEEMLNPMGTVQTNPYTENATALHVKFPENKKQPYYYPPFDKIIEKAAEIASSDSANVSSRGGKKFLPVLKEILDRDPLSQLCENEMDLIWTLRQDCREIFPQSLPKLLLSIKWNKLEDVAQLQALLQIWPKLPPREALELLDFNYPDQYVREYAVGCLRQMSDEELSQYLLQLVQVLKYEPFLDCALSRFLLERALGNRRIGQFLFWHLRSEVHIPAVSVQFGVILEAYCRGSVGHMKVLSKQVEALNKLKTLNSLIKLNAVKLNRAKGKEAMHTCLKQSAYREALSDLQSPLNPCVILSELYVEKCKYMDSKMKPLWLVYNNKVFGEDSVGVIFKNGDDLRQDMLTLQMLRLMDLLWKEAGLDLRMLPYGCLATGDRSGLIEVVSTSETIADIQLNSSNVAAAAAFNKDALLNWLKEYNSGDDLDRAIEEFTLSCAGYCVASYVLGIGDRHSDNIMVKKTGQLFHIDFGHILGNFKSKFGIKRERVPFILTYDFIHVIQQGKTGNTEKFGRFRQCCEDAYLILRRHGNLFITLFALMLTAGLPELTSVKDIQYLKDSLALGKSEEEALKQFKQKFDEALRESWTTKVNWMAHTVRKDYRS
Procedure: as §1

PIK3CG = molecular target: T13, PIK3CG (Homo sapiens, UniProt P48736); conditions: read-out: Direct inhibitory activity on PIK3CG (KINOMEscan)
T13 construct: purchased DiscoverX (San Diego, Calif.)
T13 sequence (P48736 whole entry): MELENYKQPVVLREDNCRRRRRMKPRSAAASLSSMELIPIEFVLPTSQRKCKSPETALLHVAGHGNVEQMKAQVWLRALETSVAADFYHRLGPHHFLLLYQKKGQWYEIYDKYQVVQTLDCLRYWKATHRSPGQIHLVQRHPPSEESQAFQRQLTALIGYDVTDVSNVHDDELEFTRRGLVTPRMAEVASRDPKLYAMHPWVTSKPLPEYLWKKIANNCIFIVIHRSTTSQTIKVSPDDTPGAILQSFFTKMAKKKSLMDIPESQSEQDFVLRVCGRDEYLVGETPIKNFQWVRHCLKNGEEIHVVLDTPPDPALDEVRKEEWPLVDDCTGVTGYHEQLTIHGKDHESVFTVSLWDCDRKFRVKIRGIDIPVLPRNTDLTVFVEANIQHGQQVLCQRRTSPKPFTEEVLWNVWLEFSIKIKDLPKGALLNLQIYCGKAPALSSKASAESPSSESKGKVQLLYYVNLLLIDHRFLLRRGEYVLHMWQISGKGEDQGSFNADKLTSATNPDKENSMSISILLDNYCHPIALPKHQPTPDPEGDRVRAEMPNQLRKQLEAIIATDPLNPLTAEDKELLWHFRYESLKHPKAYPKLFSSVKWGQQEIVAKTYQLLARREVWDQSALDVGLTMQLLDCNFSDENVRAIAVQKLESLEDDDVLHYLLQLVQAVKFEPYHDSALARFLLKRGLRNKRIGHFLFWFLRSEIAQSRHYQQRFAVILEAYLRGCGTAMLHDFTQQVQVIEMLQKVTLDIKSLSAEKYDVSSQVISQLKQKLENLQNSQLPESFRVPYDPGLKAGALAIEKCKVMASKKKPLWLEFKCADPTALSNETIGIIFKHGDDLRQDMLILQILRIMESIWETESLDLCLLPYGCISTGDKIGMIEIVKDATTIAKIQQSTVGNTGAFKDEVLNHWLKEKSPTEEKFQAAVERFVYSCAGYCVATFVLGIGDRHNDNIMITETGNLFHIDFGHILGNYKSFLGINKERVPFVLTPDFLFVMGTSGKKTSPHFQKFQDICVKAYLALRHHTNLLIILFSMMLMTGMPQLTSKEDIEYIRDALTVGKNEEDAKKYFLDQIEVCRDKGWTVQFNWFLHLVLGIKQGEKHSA
Procedure: as §1

PYK2 (PTK2B) = molecular target: T14, PYK2 (PTK2B) (Homo sapiens, UniProt Q14289); conditions: read-out: Direct inhibitory activity on PYK2 (KINOMEscan)
T14 construct: purchased DiscoverX (San Diego, Calif.)
Procedure: as §1

S6K1 (RPS6KB1) = molecular target: T15, S6K1 (RPS6KB1) (Homo sapiens, UniProt P23443); conditions: read-out: Direct inhibitory activity on S6K1 (KINOMEscan)
T15 construct: purchased DiscoverX (San Diego, Calif.) scanMAX
Procedure: as §1

SRC = molecular target: T16, SRC (Homo sapiens, UniProt P12931); conditions: read-out: Direct inhibitory activity on SRC (KINOMEscan)
T16 construct: purchased DiscoverX (San Diego, Calif.) scanMAX
T16 sequence (P12931 whole entry): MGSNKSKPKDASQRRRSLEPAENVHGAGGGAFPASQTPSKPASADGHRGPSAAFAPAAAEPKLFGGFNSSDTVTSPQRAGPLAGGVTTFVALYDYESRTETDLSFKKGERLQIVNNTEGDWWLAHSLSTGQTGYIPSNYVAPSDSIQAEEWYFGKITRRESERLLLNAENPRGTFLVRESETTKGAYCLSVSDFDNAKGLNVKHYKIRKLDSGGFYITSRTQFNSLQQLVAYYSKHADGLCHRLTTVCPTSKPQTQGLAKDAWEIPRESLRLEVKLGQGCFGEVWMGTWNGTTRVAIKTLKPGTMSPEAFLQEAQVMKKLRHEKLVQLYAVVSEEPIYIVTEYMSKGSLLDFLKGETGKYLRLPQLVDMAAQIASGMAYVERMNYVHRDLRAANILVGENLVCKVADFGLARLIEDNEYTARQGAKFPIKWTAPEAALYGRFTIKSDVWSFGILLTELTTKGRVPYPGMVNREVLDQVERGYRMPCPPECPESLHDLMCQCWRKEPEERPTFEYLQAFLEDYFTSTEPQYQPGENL
Procedure: as §1

SYK = molecular target: T17, SYK (Homo sapiens, UniProt P43405); conditions: read-out: Direct inhibitory activity on SYK (KINOMEscan)
T17 construct: purchased DiscoverX (San Diego, Calif.) scanMAX
Procedure: as §1

Cc1cc(NC(=O)[C@H](O)c2cc(F)cc(F)c2)ccc1-c1cnc(N)c(C(=O)NC(C)C)c1 [LY4, 2-amino-5-[4-[[(2R)-2-(3,5-difluorophenyl)-2-hydroxy-acetyl]amino]-2-methyl-phenyl]-N-isopropyl-pyridine-3-carboxamide]
inhibition at 0.2 µM (AKT1): 0% | inhibition at 2 µM (AKT1): 5% | inhibition at 20 µM (AKT1): 0% | inhibition at 0.2 µM (AKT2): 0% | inhibition at 2 µM (AKT2): 0% | inhibition at 20 µM (AKT2): 0% | inhibition at 0.2 µM (AKT3): 0% | inhibition at 2 µM (AKT3): 0% | inhibition at 20 µM (AKT3): 13% | inhibition at 0.2 µM (EGFR): 30% | inhibition at 2 µM (EGFR): 23% | inhibition at 20 µM (EGFR): 16% | inhibition at 0.2 µM (EIF2AK1): 0% | inhibition at 2 µM (EIF2AK1): 0% | inhibition at 20 µM (EIF2AK1): 35% | inhibition at 0.2 µM (ERBB2): 0% | inhibition at 2 µM (ERBB2): 0% | inhibition at 20 µM (ERBB2): 0% | inhibition at 0.2 µM (ERBB4): 0% | inhibition at 2 µM (ERBB4): 0% | inhibition at 20 µM (ERBB4): 4% | inhibition at 0.2 µM (ERK3 (MAPK6)): 0% | inhibition at 2 µM (ERK3 (MAPK6)): 32% | inhibition at 20 µM (ERK3 (MAPK6)): 3% | inhibition at 0.2 µM (ERK4 (MAPK4)): 0% | inhibition at 2 µM (ERK4 (MAPK4)): 0% | inhibition at 20 µM (ERK4 (MAPK4)): 0% | inhibition at 0.2 µM (PIK3C2B): 40% | inhibition at 2 µM (PIK3C2B): 39% | inhibition at 20 µM (PIK3C2B): 94% | inhibition at 0.2 µM (PIK3CA): 9% | inhibition at 2 µM (PIK3CA): 0% | inhibition at 20 µM (PIK3CA): 8% | inhibition at 0.2 µM (PIK3CB): 0% | inhibition at 2 µM (PIK3CB): 0% | inhibition at 20 µM (PIK3CB): 12% | inhibition at 0.2 µM (PIK3CG): 24% | inhibition at 2 µM (PIK3CG): 0% | inhibition at 20 µM (PIK3CG): 26% | inhibition at 0.2 µM (PYK2 (PTK2B)): 0% | inhibition at 2 µM (PYK2 (PTK2B)): 0% | inhibition at 20 µM (PYK2 (PTK2B)): 6% | inhibition at 0.2 µM (S6K1 (RPS6KB1)): 31% | inhibition at 2 µM (S6K1 (RPS6KB1)): 0% | inhibition at 20 µM (S6K1 (RPS6KB1)): 24% | inhibition at 0.2 µM (SRC): 0% | inhibition at 2 µM (SRC): 1% | inhibition at 20 µM (SRC): 11% | inhibition at 0.2 µM (SYK): 0% | inhibition at 2 µM (SYK): 0% | inhibition at 20 µM (SYK): 0%

Cc1cccc(CC(=O)N2CCc3c2ccc(-c2cn(C)c4ncnc(N)c24)c3F)n1 [GSK2656157, reference compound]
inhibition at 0.2 µM (AKT1): 14% | inhibition at 2 µM (AKT1): 32% | inhibition at 20 µM (AKT1): 0% | inhibition at 0.2 µM (AKT2): 0% | inhibition at 2 µM (AKT2): 4% | inhibition at 20 µM (AKT2): 8% | inhibition at 0.2 µM (AKT3): 24% | inhibition at 2 µM (AKT3): 7% | inhibition at 20 µM (AKT3): 0% | inhibition at 0.2 µM (EGFR): 18% | inhibition at 2 µM (EGFR): 16% | inhibition at 20 µM (EGFR): 50% | inhibition at 0.2 µM (EIF2AK1): 8% | inhibition at 2 µM (EIF2AK1): 77% | inhibition at 20 µM (EIF2AK1): 95% | inhibition at 0.2 µM (ERBB2): 57% | inhibition at 2 µM (ERBB2): 64% | inhibition at 20 µM (ERBB2): 97% | inhibition at 0.2 µM (ERBB4): 0% | inhibition at 2 µM (ERBB4): 0% | inhibition at 20 µM (ERBB4): 0% | inhibition at 0.2 µM (ERK3 (MAPK6)): 0% | inhibition at 2 µM (ERK3 (MAPK6)): 16% | inhibition at 20 µM (ERK3 (MAPK6)): 0% | inhibition at 0.2 µM (ERK4 (MAPK4)): 0% | inhibition at 2 µM (ERK4 (MAPK4)): 35% | inhibition at 20 µM (ERK4 (MAPK4)): 0% | inhibition at 0.2 µM (PIK3C2B): 0% | inhibition at 2 µM (PIK3C2B): 9% | inhibition at 20 µM (PIK3C2B): 22% | inhibition at 0.2 µM (PIK3CA): 0% | inhibition at 2 µM (PIK3CA): 8% | inhibition at 20 µM (PIK3CA): 0% | inhibition at 0.2 µM (PIK3CB): 0% | inhibition at 2 µM (PIK3CB): 0% | inhibition at 20 µM (PIK3CB): 0% | inhibition at 0.2 µM (PIK3CG): 36% | inhibition at 2 µM (PIK3CG): 47% | inhibition at 20 µM (PIK3CG): 50% | inhibition at 0.2 µM (PYK2 (PTK2B)): 0% | inhibition at 2 µM (PYK2 (PTK2B)): 0% | inhibition at 20 µM (PYK2 (PTK2B)): 3% | inhibition at 0.2 µM (S6K1 (RPS6KB1)): 0% | inhibition at 2 µM (S6K1 (RPS6KB1)): 30% | inhibition at 20 µM (S6K1 (RPS6KB1)): 56% | inhibition at 0.2 µM (SRC): 10% | inhibition at 2 µM (SRC): 45% | inhibition at 20 µM (SRC): 69% | inhibition at 0.2 µM (SYK): 0% | inhibition at 2 µM (SYK): 12% | inhibition at 20 µM (SYK): 23%
